Laboratory results taken from ChEMBL document CHEMBL2440076, “New triarylpyrazoles as broad-spectrum anticancer agents: design, synthesis, and biological evaluation” (Eur J Med Chem, 2013).

Tests used:
LOX IMVI = test: Growth inhibition of human LOXIMVI cells assessed as cell growth at 10 uM after 48 hrs by sulforhodamine B assay; format: functional; conditions: read-out: Activity
NCI-H460 = test: Growth inhibition of human NCI-H460 cells assessed as cell growth at 10 uM after 48 hrs by sulforhodamine B assay; format: functional; conditions: NCI-H460, 48 h, read-out: Activity
SR = test: Growth inhibition of human SR cells after 48 hrs by sulforhodamine B assay; format: functional; conditions: for CC50: read-out: LC50 (the source's name)
CCRF-CEM = test: Growth inhibition of human CCRF-CEM cells assessed as cell growth at 10 uM after 48 hrs by sulforhodamine B assay; format: functional; conditions: read-out: Activity
SK-MEL-5 [1] = test: Growth inhibition of human SK-MEL-5 cells after 48 hrs by sulforhodamine B assay; format: functional; conditions: SK-MEL-5, 48 h
M14 = test: Growth inhibition of human M14 cells after 48 hrs by sulforhodamine B assay; format: functional; conditions: M14, 48 h
HCT-15 [2] = test: Growth inhibition of human HCT15 cells after 48 hrs by sulforhodamine B assay; format: functional; conditions: HCT-15, 48 h
MDA-MB-435 = test: Growth inhibition of human MDA-MB-435 cells assessed as cell growth at 10 uM after 48 hrs by sulforhodamine B assay; format: functional; conditions: MDA-MB-435, 48 h, read-out: Activity
[3] = Growth inhibition of human Hs 578T cells assessed as cell growth at 10 uM after 48 hrs by sulforhodamine B assay; format: functional; conditions: read-out: Activity
OVCAR-5 = test: Growth inhibition of human OVCAR5 cells after 48 hrs by sulforhodamine B assay; format: functional; conditions: OVCAR-5, 48 h
SK-MEL-5 [4] = test: Growth inhibition of human SK-MEL-5 cells assessed as cell growth at 10 uM after 48 hrs by sulforhodamine B assay; format: functional; conditions: SK-MEL-5, 48 h, read-out: Activity
KM12 = test: Growth inhibition of human KM12 cells after 48 hrs by sulforhodamine B assay; format: functional, cell-based; conditions: KM12, 48 h; for CC50: read-out: LC50 (the source's name)
T47D = test: Growth inhibition of human T47D cells assessed as cell growth at 10 uM after 48 hrs by sulforhodamine B assay; format: functional; conditions: read-out: Activity
DU-145 = test: Growth inhibition of human DU145 cells after 48 hrs by sulforhodamine B assay; format: functional; conditions: DU-145, 48 h
MOLT-4 [5] = test: Growth inhibition of human MOLT4 cells after 48 hrs by sulforhodamine B assay; format: functional; conditions: MOLT-4, 48 h; for CC50: read-out: LC50 (the source's name)
TK-10 = test: Growth inhibition of human TK10 cells assessed as cell growth at 10 uM after 48 hrs by sulforhodamine B assay; format: functional; conditions: TK-10, 48 h, read-out: Activity
NCI-H322M = test: Growth inhibition of human NCI-H322M cells assessed as cell growth at 10 uM after 48 hrs by sulforhodamine B assay; format: functional; conditions: read-out: Activity
UO-31 = test: Growth inhibition of human UO31 cells after 48 hrs by sulforhodamine B assay; format: functional; conditions: UO-31, 48 h; for CC50: read-out: LC50 (the source's name)
UACC-257 = test: Growth inhibition of human UACC257 cells after 48 hrs by sulforhodamine B assay; format: functional; conditions: UACC-257, 48 h; for CC50: read-out: LC50 (the source's name)
MOLT-4 [6] = test: Growth inhibition of human MOLT4 cells assessed as cell growth at 10 uM after 48 hrs by sulforhodamine B assay; format: functional; conditions: MOLT-4, 48 h, read-out: Activity
SF-268 = test: Growth inhibition of human SF268 cells assessed as cell growth at 10 uM after 48 hrs by sulforhodamine B assay; format: functional; conditions: SF-268, 48 h, read-out: Activity
HCT-15 [7] = test: Growth inhibition of human HCT15 cells assessed as cell growth at 10 uM after 48 hrs by sulforhodamine B assay; format: functional; conditions: HCT-15, 48 h, read-out: Activity
RXF 393 = test: Growth inhibition of human RXF393 cells after 48 hrs by sulforhodamine B assay; format: functional; conditions: RXF 393, 48 h
SN12C = test: Growth inhibition of human SN12C cells after 48 hrs by sulforhodamine B assay; format: functional; conditions: for CC50: read-out: LC50 (the source's name)
IGROV-1 = test: Growth inhibition of human IGROV1 cells assessed as cell growth at 10 uM after 48 hrs by sulforhodamine B assay; format: functional; conditions: IGROV-1, 48 h, read-out: Activity
OVCAR-3 = test: Growth inhibition of human OVCAR3 cells assessed as cell growth at 10 uM after 48 hrs by sulforhodamine B assay; format: functional; conditions: OVCAR-3, 48 h, read-out: Activity
SF-539 = test: Growth inhibition of human SF539 cells assessed as cell growth at 10 uM after 48 hrs by sulforhodamine B assay; format: functional; conditions: SF-539, 48 h, read-out: Activity
MDA-MB-468 = test: Growth inhibition of human MDA-MB-468 cells assessed as cell growth at 10 uM after 48 hrs by sulforhodamine B assay; format: functional; conditions: MDA-MB-468, 48 h, read-out: Activity
HCT-116 = test: Growth inhibition of human HCT116 cells after 48 hrs by sulforhodamine B assay; format: functional; conditions: HCT-116, 48 h; for CC50: read-out: LC50 (the source's name)
SNB-19 = test: Growth inhibition of human SNB19 cells after 48 hrs by sulforhodamine B assay; format: functional; conditions: SNB-19, 48 h
RPMI-8226 = test: Growth inhibition of human RPMI8226 cells assessed as cell growth at 10 uM after 48 hrs by sulforhodamine B assay; format: functional; conditions: RPMI-8226, 48 h, read-out: Activity
NCI-H23 = test: Growth inhibition of human NCI-H23 cells after 48 hrs by sulforhodamine B assay; format: functional; conditions: NCI-H23, 48 h
PC-3 = test: Growth inhibition of human PC3 cells after 48 hrs by sulforhodamine B assay; format: functional, cell-based; conditions: PC-3, 48 h; for CC50: read-out: LC50 (the source's name)
OVCAR-4 = test: Growth inhibition of human OVCAR4 cells after 48 hrs by sulforhodamine B assay; format: functional; conditions: OVCAR-4, 48 h

## COc1cc(-c2nn(-c3cccc(NC(=O)c4cccc(C(F)(F)F)c4)c3)cc2-c2ccncc2)ccc1Cl
LOX IMVI
  growth at 10 µM: 11.4%
NCI-H460
  growth at 10 µM: 4.83%
SR
  GI50: 0.838 µM
  TGI: 4.59 µM
  CC50: > 50 µM
CCRF-CEM
  growth at 10 µM: 3.1%
SK-MEL-5 [1]
  GI50: 0.978 µM
  LC50 (concentration killing 50% of cells): 40.6 µM
  TGI: 2.47 µM
M14
  GI50: 1.63 µM
  LC50 (concentration killing 50% of cells): > 50 µM
  TGI: > 50 µM
HCT-15 [2]
  GI50: 1.55 µM
  LC50: > 50 µM
  TGI: > 50 µM
MDA-MB-435
  growth at 10 µM: -39.6%
[3]
  growth at 10 µM: -5.69%
OVCAR-5
  GI50: 4.01 µM
  LC50 (concentration killing 50% of cells): > 50 µM
  TGI: > 50 µM
SK-MEL-5 [4]
  growth at 10 µM: -33%
KM12
  GI50: 1.66 µM
  TGI: > 50 µM
  CC50: > 50 µM
T47D
  growth at 10 µM: 29%
DU-145
  GI50: 1.76 µM
  LC50: > 50 µM
  TGI: 32.1 µM
MOLT-4 [5]
  GI50: 2.01 µM
  TGI: > 50 µM
  CC50: > 50 µM
TK-10
  growth at 10 µM: 8.08%
NCI-H322M
  growth at 10 µM: 58.1%
UO-31
  GI50: 0.968 µM
  TGI: > 50 µM
  CC50: > 50 µM
UACC-257
  GI50: 27.9 µM
  TGI: > 50 µM
  CC50: > 50 µM
MOLT-4 [6]
  growth at 10 µM: 8.63%
SF-268
  growth at 10 µM: 30.5%
HCT-15 [7]
  growth at 10 µM: 12.8%
RXF 393
  GI50: 0.811 µM
  LC50 (concentration killing 50% of cells): > 50 µM
  TGI: 3.15 µM
SN12C
  GI50: 3.31 µM
  TGI: > 50 µM
  CC50: > 50 µM
IGROV-1
  growth at 10 µM: 34%
OVCAR-3
  growth at 10 µM: -25.6%
SF-539
  growth at 10 µM: -48.8%
MDA-MB-468
  growth at 10 µM: -19.4%
HCT-116
  GI50: 1.67 µM
  TGI: > 50 µM
  CC50: > 50 µM
SNB-19
  GI50: 2.46 µM
  LC50 (concentration killing 50% of cells): > 50 µM
  TGI: > 50 µM
RPMI-8226
  growth at 10 µM: -1.13%
NCI-H23
  GI50: 1.56 µM
  LC50: > 50 µM
  TGI: 32.5 µM
PC-3
  GI50: 1.23 µM
  IC50: 1.23 µM
  TGI: > 50 µM
  CC50: > 50 µM
OVCAR-4
  GI50: 2.28 µM
  LC50 (concentration killing 50% of cells): > 50 µM
  TGI: > 50 µM

## COc1cc(-c2nn(-c3cccc(NC(=O)Nc4cccc(C(F)(F)F)c4)c3)cc2-c2ccncc2)ccc1Cl
LOX IMVI
  growth at 10 µM: -64.2%
NCI-H460
  growth at 10 µM: -7.91%
SR
  GI50: 0.886 µM
  TGI: 2.84 µM
  CC50: > 50 µM
CCRF-CEM
  growth at 10 µM: -9.68%
SK-MEL-5 [1]
  GI50: 0.72 µM
  LC50 (concentration killing 50% of cells): 2.68 µM
  TGI: 1.39 µM
M14
  GI50: 0.754 µM
  LC50 (concentration killing 50% of cells): 4.65 µM
  TGI: 1.87 µM
HCT-15 [2]
  GI50: 0.87 µM
  LC50: 50 µM
  TGI: 5.42 µM
MDA-MB-435
  growth at 10 µM: -50%
[3]
  growth at 10 µM: -13.7%
OVCAR-5
  GI50: 1.27 µM
  LC50 (concentration killing 50% of cells): > 50 µM
  TGI: 6.45 µM
SK-MEL-5 [4]
  growth at 10 µM: -97.8%
KM12
  GI50: 0.573 µM
  IC50: 0.57 µM
  TGI: 1.98 µM
  CC50: > 50 µM
T47D
  growth at 10 µM: -4.03%
DU-145
  GI50: 1.67 µM
  LC50: > 50 µM
  TGI: > 50 µM
MOLT-4 [5]
  GI50: 0.936 µM
  TGI: 3.48 µM
  CC50: > 50 µM
TK-10
  growth at 10 µM: 2.65%
NCI-H322M
  growth at 10 µM: 21.7%
UO-31
  GI50: 0.702 µM
  TGI: 3.21 µM
  CC50: > 50 µM
UACC-257
  GI50: 0.923 µM
  TGI: 2.31 µM
  CC50: 7.58 µM
MOLT-4 [6]
  growth at 10 µM: -26.3%
SF-268
  growth at 10 µM: 2.35%
HCT-15 [7]
  growth at 10 µM: 5.28%
RXF 393
  GI50: 0.777 µM
  LC50 (concentration killing 50% of cells): 4.83 µM
  TGI: 1.94 µM
SN12C
  GI50: 1.4 µM
  TGI: 21.9 µM
  CC50: > 50 µM
IGROV-1
  growth at 10 µM: 14%
OVCAR-3
  growth at 10 µM: -42%
SF-539
  growth at 10 µM: -34.2%
MDA-MB-468
  growth at 10 µM: -27.6%
HCT-116
  GI50: 0.9 µM
  TGI: 7.17 µM
  CC50: > 50 µM
SNB-19
  GI50: 0.981 µM
  LC50 (concentration killing 50% of cells): > 50 µM
  TGI: 4 µM
RPMI-8226
  growth at 10 µM: -14.8%
NCI-H23
  GI50: 1.18 µM
  LC50: > 50 µM
  TGI: 3.41 µM
PC-3
  GI50: 0.372 µM
  IC50: 0.37 µM
  TGI: 2.51 µM
  CC50: > 50 µM
OVCAR-4
  GI50: 1.1 µM
  LC50 (concentration killing 50% of cells): > 50 µM
  TGI: 2.1 µM
